pIC50: −log10 of the molar value. Structures can show the parent of a compound that is named as a salt.
Experiments:
[1] = tested on: BT474 (human breast carcinoma); test: In vitro tumor cell proliferation assay (Cell Titer-Glo luminescent cell viability), BT474; type: cell-based; settings: BT-474, 72 h, BT474 cells, 72 hours of drug exposure, ATP luminescence readout, read-out: IC50, anti-proliferative activity (inhibition of cell proliferation)
In short: (§1)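 Proliferation inhibition was measured as ATP-dependent luciferase signal after cells in RPMI with 10% FBS received test compound for 72 h at 37° C. Final concentrations spanned […] to 64 pM in 0.1% DMSO; IC50 values were derived.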

[2] = tested on: A431 cells (human epidermoid carcinoma); test: In vitro tumor cell proliferation assay (Cell Titer-Glo luminescent cell viability), A431; type: cell-based; settings: A-431, 72 h, 72 hours of drug exposure, ATP luminescence readout, read-out: IC50, anti-proliferative activity (inhibition of cell proliferation)
In short: as §1

Row | SMILES | pIC50 [1] | pIC50 [2]
1 | OCCNCCn1cc2c(n1)CCc1c-2sc2ncnc(Nc3ccc(F)c(Cl)c3)c12 [Example 19, 2-[(2-{6-[(3-chloro-4-fluorophenyl)amino]-4,5-dihydro-2H-pyrimido[5′,4′:4,5]thieno[2,3-e]indazol-2-yl}ethyl)amino]ethanol] | ≥ 5.30 | ≥ 5.30
2 | OCC(CO)N1CCC(CCn2cc3c(n2)CCc2c-3sc3ncnc(Nc4ccc(OCc5cccc(F)c5)c(Cl)c4)c23)CC1 [Example 249, 2-(4-{2-[6-({3-chloro-4-[(3-fluorobenzyl)oxy]phenyl}amino)-4,5-dihydro-2H-pyrimido[5′,4′:4,5]thieno[2,3-e]indazol-2-yl]ethyl}piperidin-1-yl)propane-1,3-diol] | ≥ 6.00 | ≥ 5.30
3 | CS(=O)(=O)OCCn1ncc2c1CCc1c-2sc2ncnc(Nc3ccc(F)c(Cl)c3)c12 [Example 89, 2-{6-[(3-chloro-4-fluorophenyl)amino]-4,5-dihydro-3H-pyrimido[5′,4′:4,5]thieno[2,3-e]indazol-3-yl}ethyl methanesulfonate] | ≥ 4.30 | ≥ 4.30
4 | OCCN(CCO)C[C@@H](O)Cn1ncc2c1CCc1c-2sc2ncnc(Nc3ccc(OCc4cccc(F)c4)c(Cl)c3)c12 [Example 172, (2R)-1-[bis(2-hydroxyethyl)amino]-3-[6-({3-chloro-4-[(3-fluorobenzyl)oxy]phenyl}amino)-4,5-dihydro-3H-pyrimido[5′,4′:4,5]thieno[2,3-e]indazol-3-yl]propan-2-ol trifluoroacetate (salt)] | ≥ 6.00 | ≥ 4.30
5 | CS(=O)(=O)CCNCCn1ncc2c1CCc1c-2sc2ncnc(Nc3ccc(F)c(Cl)c3)c12 [Example 92, N-(3-chloro-4-fluorophenyl)-3-(2-{[2-(methylsulfonyl)ethyl]amino}ethyl)-4,5-dihydro-3H-pyrimido[5′,4′:4,5]thieno[2,3-e]indazol-6-amine] | ≥ 5.30 | ≥ 5.30
6 | CN(C)[C@@H]1CCN(C(=O)Cn2cc3c(n2)CCc2c-3sc3ncnc(Nc4ccc(OCc5cccc(F)c5)c(Cl)c4)c23)C1 [Example 181, N-{3-chloro-4-[(3-fluorobenzyl)oxy]phenyl}-2-{2-[3-(dimethylamino)pyrrolidin-1-yl]-2-oxoethyl}-4,5-dihydro-2H-pyrimido[5′,4′:4,5]thieno[2,3-e]indazol-6-amine] | ≥ 6.00 | ≥ 5.30
7 | CN(C)C[C@@H](O)Cn1ncc2c1CCc1c-2sc2ncnc(Nc3ccc(OCc4cccc(F)c4)c(Cl)c3)c12 [Example 171, (2R)-1-[6-({3-chloro-4-[(3-fluorobenzyl)oxy]phenyl}amino)-4,5-dihydro-3H-pyrimido[5′,4′:4,5]thieno[2,3-e]indazol-3-yl]-3-(dimethylamino)propan-2-ol trifluoroacetate (salt)] | ≥ 6.00 | ≥ 4.30
8 | Clc1cc(Nc2ncnc3sc4c(c23)CCc2n[nH]cc2-4)ccc1OCc1ccccn1 [Example 109, N-[3-chloro-4-(pyridin-2-ylmethoxy)phenyl]-4,5-dihydro-2H-pyrimido[5′,4′:4,5]thieno[2,3-e]indazol-6-amine] | ≥ 6.00 | ≥ 4.30
9 | COC[C@H]1CCCN1CCn1cc2c(n1)CCc1c-2sc2ncnc(Nc3ccc(F)c(Cl)c3)c12 [Example 28, N-(3-chloro-4-fluorophenyl)-2-{2-[(2R)-2-(methoxymethyl)pyrrolidin-1-yl]ethyl}-4,5-dihydro-2H-pyrimido[5′,4′:4,5]thieno[2,3-e]indazol-6-amine] | ≥ 5.30 | ≥ 5.30
10 | Cc1cc(Nc2ncnc3sc4c(c23)CCc2c-4cnn2CCN2CCN(C)CC2)ccc1O [Example 316, 2-methyl-4-({3-[2-(4-methylpiperazin-1-yl)ethyl]-4,5-dihydro-3H-pyrimido[5′,4′:4,5]thieno[2,3-e]indazol-6-yl}amino)phenol] | ≥ 4.30 | ≥ 4.30
11 | Fc1cccc(COc2ccc(Nc3ncnc4sc5c(c34)CCc3c-5cnn3CCn3ccnc3)cc2Cl)c1 [Example 83, N-{3-chloro-4-[(3-fluorobenzyl)oxy]phenyl}-3-[2-(1H-imidazol-1-yl)ethyl]-4,5-dihydro-3H-pyrimido[5′,4′:4,5]thieno[2,3-e]indazol-6-amine] | ≥ 6.00 | ≥ 5.30
12 | CN1CCN(CC(=O)N2CCC(Cn3cc4c(n3)CCc3c-4sc4ncnc(Nc5ccc(OCc6cccc(F)c6)c(Cl)c5)c34)CC2)CC1 [Example 237] | ≥ 6.00 | ≥ 5.30
13 | OC1CCN(CCn2ncc3c2CCc2c-3sc3ncnc(Nc4ccc5c(cnn5Cc5cccc(F)c5)c4)c23)C1 (stereo not shown) [Example 299, 1-[2-(6-{[1-(3-fluorobenzyl)-1H-indazol-5-yl]amino}-4,5-dihydro-3H-pyrimido[5′,4′:4,5]thieno[2,3-e]indazol-3-yl)ethyl]pyrrolidin-3-ol] | ≥ 6.00 | ≥ 5.30
14 | CCN1CCC(CCn2cc3c(n2)CCc2c-3sc3ncnc(Nc4ccc(OCc5cccc(F)c5)c(Cl)c4)c23)CC1 [Example 254, N-{3-chloro-4-[(3-fluorobenzyl)oxy]phenyl}-2-[2-(1-ethylpiperidin-4-yl)ethyl]-4,5-dihydro-2H-pyrimido[5′,4′:4,5]thieno[2,3-e]indazol-6-amine] | ≥ 6.00 | ≥ 5.30
15 | Fc1cccc(Cn2ncc3cc(Nc4ncnc5sc6c(c45)CCc4c-6cnn4CCn4ccnc4)ccc32)c1 [Example 291, N-[1-(3-fluorobenzyl)-1H-indazol-5-yl]-3-[2-(1H-imidazol-1-yl)ethyl]-4,5-dihydro-3H-pyrimido[5′,4′:4,5]thieno[2,3-e]indazol-6-amine] | ≥ 6.00 | ≥ 5.30
16 | COC(=O)[C@@H]1CCCN1CCn1cc2c(n1)CCc1c-2sc2ncnc(Nc3ccc(F)c(Cl)c3)c12 [Example 34, methyl 1-(2-{6-[(3-chloro-4-fluorophenyl)amino]-4,5-dihydro-2H-pyrimido[5′,4′:4,5]thieno[2,3-e]indazol-2-yl}ethyl)-L-prolinate] | ≥ 5.30 | ≥ 5.30
17 | COC[C@@H]1CCCN1C[C@@H](O)Cn1cc2c(n1)CCc1c-2sc2ncnc(Nc3ccc(OCc4cccc(F)c4)c(Cl)c3)c12 [Example 140, (2R)-1-[6-({3-chloro-4-[(3-fluorobenzyl)oxy]phenyl}amino)-4,5-dihydro-2H-pyrimido[5′,4′:4,5]thienol[2,3-e]indazol-2-yl]-3-[(2S)-2-(methoxymethyl)pyrrolidin-1-yl]propan-2-ol] | ≥ 6.00 | ≥ 4.30
18 | CN(C)C1CCN(CCn2cc3c(n2)CCc2c-3sc3ncnc(Nc4ccc(F)c(Cl)c4)c23)C1 (stereo not shown) [Example 15, N-(3-chloro-4-fluorophenyl)-2-{2-[3-(dimethylamino)pyrrolidin-1-yl]ethyl}-4,5-dihydro-2H-pyrimido[5′,4′:4,5]thieno[2,3-e]indazol-6-amine] | ≥ 6.00 | ≥ 5.30
19 | Fc1ccc(Nc2ncnc3sc4c(c23)CCc2nn(CCN3CCN(c5cnccn5)CC3)cc2-4)cc1Cl [Example 22, N-(3-chloro-4-fluorophenyl)-2-[2-(4-pyrazin-2-ylpiperazin-1-yl)ethyl]-4,5-dihydro-2H-pyrimido[5′,4′:4,5]thieno[2,3-e]indazol-6-amine] | ≥ 5.30 | ≥ 5.30
20 | COCCN1CCN(C(=O)Cn2ncc3c2CCc2c-3sc3ncnc(Nc4ccc(OCc5cccc(F)c5)c(Cl)c4)c23)CC1 [Example 203, N-{3-chloro-4-[(3-fluorobenzyl)oxy]phenyl}-3-{2-[4-(2-methoxyethyl)piperazin-1-yl]-2-oxoethyl}-4,5-dihydro-3H-pyrimido[5′,4′:4,5]thieno[2,3-e]indazol-6-amine] | ≥ 6.00 | ≥ 4.30
21 | CN1CCN(CCn2cc3c(n2)CCc2c-3sc3ncnc(Nc4ccc(Oc5cccnc5)c(F)c4)c23)CC1 [Example 343, N-[3-fluoro-4-(pyridin-3-yloxy)phenyl]-2-[2-(4-methylpiperazin-1-yl)ethyl]-4,5-dihydro-2H-pyrimido[5′,4′:4,5]thieno[2,3-e]indazol-6-amine] | ≥ 5.30 | ≥ 4.30
22 | O[C@H](CN1CC[C@H](O)C1)Cn1cc2c(n1)CCc1c-2sc2ncnc(Nc3ccc(OCc4cccc(F)c4)c(Cl)c3)c12 [Example 150, (3S)-1-{(2R)-3-[6-({3-chloro-4-[(3-fluorobenzyl)oxy]phenyl}amino)-4,5-dihydro-2H-pyrimido[5′,4′:4,5]thieno[2,3-e]indazol-2-yl]-2-hydroxypropyl}pyrrolidin-3-ol trifluoroacetate (salt)] | ≥ 6.00 | ≥ 4.30
23 | OCCn1ncc2c1CCc1c-2sc2ncnc(Nc3ccc4c(cnn4Cc4cccc(F)c4)c3)c12 [Example 289, 2-(6-{[1-(3-fluorobenzyl)-1H-indazol-5-yl]amino}-4,5-dihydro-3H-pyrimido[5′,4′:4,5]thieno[2,3-e]indazol-3-yl)ethanol] | ≥ 6.00 | ≥ 5.30
24 | CC(C)N1CCC(CCn2cc3c(n2)CCc2c-3sc3ncnc(Nc4ccc(OCc5cccc(F)c5)c(Cl)c4)c23)CC1 [Example 252, N-{3-chloro-4-[(3-fluorobenzyl)oxy]phenyl}-2-[2-(1-isopropylpiperidin-4-yl)ethyl]-4,5-dihydro-2H-pyrimido[5′,4′:4,5]thieno[2,3-e]indazol-6-amine] | ≥ 6.00 | ≥ 5.30
25 | CNC(=O)Cn1ncc2c1CCc1c-2sc2ncnc(Nc3ccc(OCc4cccc(F)c4)c(Cl)c3)c12 [Example 196, 2-[6-({3-chloro-4-[(3-fluorobenzyl)oxy]phenyl}amino)-4,5-dihydro-3H-pyrimido[5′,4′:4,5]thieno[2,3-e]indazol-3-yl]-N-methylacetamide] | ≥ 6.00 | ≥ 4.30
26 | CS(=O)(=O)OCCn1ncc2c1CCc1c-2sc2ncnc(Nc3ccc(OCc4cccc(F)c4)c(Cl)c3)c12 [Example 258, 2-[6-({3-chloro-4-[(3-fluorobenzyl)oxy]phenyl}amino)-4,5-dihydro-3H-pyrimido[5′,4′:4,5]thieno[2,3-e]indazol-3-yl]ethyl methanesulfonate] | ≥ 6.00 | ≥ 5.30

— US8207172B2 (Bayer Intellectual Property GmbH, priority 2004, dated 2012)
